From ChEMBL document CHEMBL3272001, “Nuclear analogues of beta-lactam antibiotics. 4. Total synthesis of bisnorisopenicillins from beta-lactam precursors” (1978) come the findings set out here.

For orientation: MIC means the smallest concentration in the dilution series that meets the test's criterion for growth inhibition.

Common to all, as to assay type: functional
Test [1] deals with Staphylococcus aureus. Put plainly: Antibacterial activity against Staphylococcus aureus SK&F 23390 assessed as […].
For test [2], the system named is Klebsiella pneumoniae. Put plainly: Antibacterial activity against Klebsiella pneumoniae SK&F 1200 assessed as […].
Test [3] deals with Enterococcus faecalis. Put plainly: Antibacterial activity against Streptococcus faecalis HH 34358 assessed as […].
Test [4] deals with Morganella morganii. Put plainly: Antibacterial activity against Proteus morganii 179 assessed as […].
For test [5], the system named is Escherichia coli. Put plainly: Antibacterial activity against Escherichia coli HH 33779 assessed as […].
Test [6] has as its system Serratia marcescens. Put plainly: Antibacterial activity against Serratia marcescens ATCC 13880 assessed as […].
For test [7], the system named is Escherichia coli. Put plainly: Antibacterial activity against Escherichia coli SK&F 12140 assessed as […].
Test [8] has as its system Klebsiella aerogenes. Put plainly: Antibacterial activity against Enterobacter aerogenes ATCC 13048 assessed as […].

SMILES strings stand for the structures. Values after ≈ are worked out from the molar mass of the structure shown.

`CC(=O)OCC1=C(C(=O)O)N2C(=O)[C@@H](NC(=O)Cc3cccs3)[C@H]2SC1` [CEPHALOTHIN]: the MIC is 0.2 µM (≈ 0.0793 µg/mL) in test [1]; 3.6 µM (≈ 1.43 µg/mL) in test [2]; 14 µM (≈ 5.55 µg/mL) in test [3]; over 453 µM in test [4]; 7 µM (≈ 2.78 µg/mL) in test [5]; over 453 µM in test [6]. Also, the figures for the MIC in test [7] and in test [8] were 7 µM (≈ 2.78 µg/mL) and 14 µM (≈ 5.55 µg/mL), respectively.
